# Assay results reported in patent publication US20100029604A1, “ANTIBACTERIAL COMBINATION AND ITS USE” (priority 2007, published 2010).
# Where two headings read alike, the source gives them in different places.
# What was measured:
# [1] = test system: E. coli TEM-1; assay type: cell-based; settings: TEM-1, class A, inhibitor constant 4 μg/mL
# [2] = test system: E. coli TEM-2; assay type: cell-based; settings: TEM-2, class A, inhibitor constant 4 μg/mL
# [3] = test system: K. pneumoniae SHV-18; assay: Synergy MIC, inhibitor at 4 μg/mL (Example 4); assay type: cell-based; settings: SHV-18, class A, inhibitor constant 4 μg/mL
# [4] = test system: E. coli SHV-3; assay: Synergy MIC, inhibitor at 4 μg/mL (Example 4); assay type: cell-based; settings: SHV-3, class A, inhibitor constant 4 μg/mL
# [5] = test system: E. coli SHV-5; assay: Synergy MIC, inhibitor at 4 μg/mL (Example 4); assay type: cell-based; settings: SHV-5, class A, inhibitor constant 4 μg/mL
# [6] = test system: C. freundii AmpC; assay: Synergy MIC, inhibitor at 4 μg/mL (Example 4); assay type: cell-based, Citrobacter freundii; settings: class C, inhibitor constant 4 μg/mL
# Procedure: (§1) The in vitro activities of the antibiotics were determined by the broth microdilution method and agar dilution technique as recommended by CLSI guidelines. The MIC experiments were performed in duplicate in 96-well microtiter plates using MHB. Serial twofold dilutions of each antibiotic either alone or in combination with a constant amount (4 μg/mL) of a β-lactamase inhibitor were prepared in MHBII broth. A sterile pipette tip was used to mix the contents of each well (one tip was used going from the low to the high concentration in the same column). The bacterial suspension with final inoculum 10^5 CFU/mL was transferred to the test medium containing the antibacterial substances by a multipoint inoculator (Dynatech, Chantilly, Va., USA). The plates were then incubated at 35° C. for 24 h.
# (§2) Following procedures identical to those described in Example 3, representative compound of Formula (I) was tested for its ability to enhance antibiotic efficacy against Class C β-lactamase positive bacterial strains that are highly resistant to β-lactam antibiotics. Class C enzymes included AmpC β-lactamases of Enterobacter Cloacae and Citrobacter freundii.
# [7] = test system: E. cloacae AmpC; assay: Synergy MIC, inhibitor at 4 μg/mL (Example 4); assay type: cell-based, Enterobacter Cloacae; settings: class C, inhibitor constant 4 μg/mL
# Procedure: as §1, §2
# [8] = molecular target: SHV-1 (Escherichia coli, UniProt P0AD63); assay: IC50 determination, nitrocefin hydrolysis; assay type: biochemical, E. coli; settings: Class A β-lactamase, 10 min pre-incubation at 37° C.
# Sequence of SHV-1 (P0AD63 22-286): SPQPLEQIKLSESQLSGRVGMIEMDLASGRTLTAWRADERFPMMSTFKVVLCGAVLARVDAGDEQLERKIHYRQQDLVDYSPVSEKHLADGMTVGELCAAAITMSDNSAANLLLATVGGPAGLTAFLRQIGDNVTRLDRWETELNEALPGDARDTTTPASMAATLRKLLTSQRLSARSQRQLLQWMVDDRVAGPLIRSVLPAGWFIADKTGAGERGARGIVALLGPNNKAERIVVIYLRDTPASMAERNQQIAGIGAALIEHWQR
# Procedure: (§3) A standard test for the production of βlactamase involves use of the chromogenic cephalosporin, nitrocefin.
# (§4) Homogeneously purified Class A β-lactamases TEM-1 and SHV-1 from E. coli and Class C enzyme AmpC from Enterobacter Cloaca were employed in the assay.
# (§5) Compounds were prepared as 50 mM stocks in DMSO and diluted with buffer P1 (50 mM phosphate, pH 7) to a final concentration of 10% DMSO. All further dilutions were done using P2 (P1 with 10% DMSO). Enzyme and compound dilutions were pre-incubated for 10 min at 37° C. and the reaction started with the addition of pre-warmed (37° C.) nitrocefin (reporter substrate) at a final concentration of […]. The change in absorption at 490 nm was followed at 37° C. for 10 min at 30 sec intervals in a SPECTRAMAX 384 PLUS microplate reader (Molecular Devices, Sunnyvale, Calif.) using 96-well plates. The initial rate was determined and IC50 values were calculated using non-linear regression and sigmoidal dose response analysis with the PRISM 4.0 software (Graphpad Software Inc., San Diego, Calif.). IC50 data is expressed as μM and was calculated from at least two independent experiments.
# [9] = molecular target: TEM-1 (Escherichia coli, UniProt P62593); assay: IC50 determination, nitrocefin hydrolysis; assay type: biochemical, E. coli; settings: Class A β-lactamase, 10 min pre-incubation at 37° C.
# Sequence of TEM-1 (P62593 24-286 limits assumed): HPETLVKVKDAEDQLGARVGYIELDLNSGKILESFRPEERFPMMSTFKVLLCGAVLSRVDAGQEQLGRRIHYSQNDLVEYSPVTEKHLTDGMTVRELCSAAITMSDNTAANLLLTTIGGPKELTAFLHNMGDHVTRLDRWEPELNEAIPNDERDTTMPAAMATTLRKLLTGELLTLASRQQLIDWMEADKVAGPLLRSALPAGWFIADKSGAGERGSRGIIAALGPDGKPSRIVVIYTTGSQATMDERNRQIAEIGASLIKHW
# Procedure: as §3, §4, §5
# [10] = molecular target: AmpC (Enterobacter cloacae, UniProt P05364); assay type: biochemical, Enterobacter Cloaca; settings: Class C β-lactamase; 10 min pre-incubation at 37° C., nitrocefin
# Sequence of AmpC (P05364 21-381): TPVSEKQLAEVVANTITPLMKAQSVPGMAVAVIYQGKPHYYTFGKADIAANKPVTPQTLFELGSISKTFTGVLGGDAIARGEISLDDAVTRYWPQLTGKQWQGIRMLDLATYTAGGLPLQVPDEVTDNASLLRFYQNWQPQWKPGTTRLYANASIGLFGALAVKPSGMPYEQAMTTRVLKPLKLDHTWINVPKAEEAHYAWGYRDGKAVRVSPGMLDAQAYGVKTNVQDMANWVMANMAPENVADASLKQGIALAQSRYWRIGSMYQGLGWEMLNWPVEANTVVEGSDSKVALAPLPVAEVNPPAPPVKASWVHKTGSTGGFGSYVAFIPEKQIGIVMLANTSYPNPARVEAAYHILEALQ
# Procedure: as §3, §4, §5
# [11] = test system: M. catarrhalis BRO-1; assay: Synergy MIC, inhibitor at 4 μg/mL (Example 3); assay type: cell-based, Moraxella catarrhalis; settings: BRO-1 β-lactamases of M. catarrhalis
# Procedure: (§6) Stock solutions of the test compounds and control antibiotics were prepared in distilled water according to the NCCLS guidelines [Methods for dilution antimicrobial tests for bacteria that grow aerobically. NCCLS document M7-A5; 2000; vol. 19. National Committee for Clinical Laboratory Standards, Villanova, Pa.]. All drug weights were corrected for salt forms and refer to the pure drug substance.
# (§7) All tested strains and Clinical isolates were either purchased from the American Type Culture Collection (ATCC), or from the in-house company culture collection.
# (§8) Stock cultures were prepared from broth cultures grown at 35° C. for 18-22 h without agitation and subsequent addition of 5% DMSO (v/v, final concentration) as cryoprotectant and stored frozen in liquid nitrogen. Mueller-Hinton II broth (MHBII) (BBL Cockeysville, Md.) was used for the testing procedure.
# as §1
# (§9) Representative compound of Formula (I) was evaluated against the serine-based Class A β-lactamases including TEM-type, SHV-type extended spectrum β-lactamases (ESBL) and various non-ESBL enzymes of enterobacteriaceae as well as BRO-type enzymes of Moraxella catarrhalis and penicillinases of Staphylococcus aureus.
# [12] = test system: S. aureus PC; assay: Synergy MIC, inhibitor at 4 μg/mL (Example 3); assay type: cell-based, Staphylococcus aureus; settings: penicillinases (PC-type) of S. aureus (MSSA)
# Procedure: as §6, §7, §8, §1, §9
# [13] = test system: 55 laboratory strains producing characterized β-lactamases; assay: MIC, whole panel of Example 5 (Tables 5-7); assay type: cell-based; settings: LK-157 as single agent against the tested strains
# Procedure: The MIC experiments were performed in duplicate in 96-well microtiter plates using CAMHB. Serial twofold dilutions of each antibiotic either alone or in combination with constant concentration ratio of a β-lactamase inhibitor (2:1) were prepared in CAMHB. The bacterial suspension with final inoculum 10^5 CFU/mL was transferred to the test medium containing the antibacterial substances. In each well of a 96-well microtiter plate was combined 50 μL of bacterial inoculum, 50 μL of antibiotic dilutions (or media for determination of the MIC of the antibiotic in the absence of test compound). Each plate included 4 wells with no bacterial inoculum (negative control) and 4 wells with no test compound and no antibiotic (positive control). The plates were incubated at 35° C. for 24 h. Purity check and colony counts on each inoculum suspension was performed to ensure that the final inoculum concentration routinely obtained closely approximates 5×10^5 CFU/mL. In addition the assay is routinely monitored by testing standard antibiotics and ensuring that MIC values are within the recommended ranges for the respective strains.
# This test permits comparisons to be made between bacterial growth in the presence of antibiotic alone and bacterial growth in the presence of both an antibiotic and a novel (test) compound.
# [14] = test system: Class C β-lactamase (AmpC) producing strains; assay: Synergy MIC, Class C strains of Example 4; assay type: cell-based; settings: all combinations used
# Procedure: as §1, §2
# [15] = test system: C. freundii SHV-5; assay: Synergy MIC, inhibitor at 4 μg/mL (Example 3); assay type: cell-based; settings: β-lactamase SHV-5 (Table 3 r10), inhibitor constant 4 μg/mL
# Procedure: as §6, §7, §8, §1, §9
# [16] = test system: E. cloacae SHV-12; assay: Synergy MIC, inhibitor at 4 μg/mL (Example 3); assay type: cell-based; settings: β-lactamase SHV-12 (Table 3 r11), inhibitor constant 4 μg/mL
# Procedure: as §6, §7, §8, §1, §9
# [17] = test system: E. coli ESBL; assay: Synergy MIC, inhibitor at 4 μg/mL (Example 3); assay type: cell-based; settings: first listed (Table 3 r21), inhibitor constant 4 μg/mL
# Procedure: as §6, §7, §8, §1, §9
# [18] = test system: E. coli SHV-3; assay: Synergy MIC, inhibitor at 4 μg/mL (Example 3); assay type: cell-based; settings: β-lactamase SHV-3 (Table 3 r9), inhibitor constant 4 μg/mL
# Procedure: as §6, §7, §8, §1, §9
# [19] = test system: K. oxytoca ESBL; assay: Synergy MIC, inhibitor at 4 μg/mL (Example 3); assay type: cell-based; settings: ESBL (Table 3 r26), inhibitor constant 4 μg/mL
# Procedure: as §6, §7, §8, §1, §9
# [20] = test system: E. coli TEM-1; assay type: cell-based; settings: β-lactamase TEM-1, first listed (Table 3 r14), inhibitor constant 4 μg/mL
# Procedure: as §6, §7, §8, §1, §9
# [21] = test system: E. coli TEM-3; assay type: cell-based; settings: β-lactamase TEM-3 (Table 3 r16), inhibitor constant 4 μg/mL
# Procedure: as §6, §7, §8, §1, §9
# [22] = test system: M. catarrhalis BRO-2; assay: Synergy MIC, inhibitor at 4 μg/mL (Example 3); assay type: cell-based, Moraxella catarrhalis; settings: β-lactamase BRO-2 (Table 3 r18), inhibitor constant 4 μg/mL
# Procedure: as §6, §7, §8, §1, §9
# [23] = test system: C. freundii SHV-5; assay: Synergy MIC, inhibitor at 4 μg/mL (Example 4); assay type: cell-based; settings: SHV-5, class A, inhibitor constant 4 μg/mL
# [24] = test system: Klebsiella oxytoca ATCC 51983; assay: MIC broth microdilution (Example 2); settings: ATCC51983
# [25] = test system: Klebsiella pneumoniae ATCC 700603; assay: MIC broth microdilution (Example 2); settings: Klebsiella pneumoniae ATCC 700603 producing SHV-18
MIC [1] [µg/mL],MIC [2],MIC [3] [µg/mL],MIC [4] [µg/mL],MIC [5] [µg/mL],MIC [6] [µg/mL],MIC ([7]; first listed) [µg/mL],MIC ([7]; second listed) [µg/mL],MIC ([7]; third listed) [µg/mL],SMILES,other results
12.8,0.1 µg/mL,> 25.6,0.4,> 25.6,> 25.6,25.6,> 25.6,12.8,"C[C@H]1[C@H](NC(=O)/C(=N\OC(C)(C)C(=O)O)c2csc(N)n2)C(=O)N1S(=O)(=O)O [Aztreonam, aztreonam]",–
25.6,≦0.025,0.8,0.8,> 25.6,1.6,6.4,3.2,3.2,"CO/N=C(\C(=O)N[C@@H]1C(=O)N2C(C(=O)[O-])=C(C[n+]3cccc4c3CCC4)CS[C@H]12)c1csc(N)n1 [Cefpirome, cefpirome]",–
–,–,–,–,–,–,–,–,–,"C/C=C1/C(=O)N2C(C(=O)O)=C3[C@@H](OC)CCC[C@@H]3[C@H]12 [Compound 1a, (4S,8S,9R)-4-methoxy-10-((E)-ethylidene)-11-oxo-1-azatricyclo[7.2.0.0^3,8]undec-2-ene-2-carboxylic acid]",IC50 [8]: 151 nM; IC50 [9]: 55 nM; IC50 [10]: 62 nM; activity compared with other β-lactamase inhibitors [11]: more active than the other tested β-lactamase inhibitors; activity compared with other β-lactamase inhibitors [12]: more active than the other tested β-lactamase inhibitors; antibiotic activity per se [13]: did not display antibiotic activity per se; activity compared with tazobactam [14]: superior to tazobactam
–,–,–,–,–,–,–,–,–,"CCN1CCN(C(=O)N[C@@H](C(=O)N[C@@H]2C(=O)N3[C@@H]2SC(C)(C)[C@@H]3C(=O)O)c2ccccc2)C(=O)C1=O [PIP, piperacillin]",MIC [15]: > 25.6 µg/mL; MIC [16]: > 25.6 µg/mL; MIC [17]: 0.8 µg/mL; MIC [18]: > 25.6 µg/mL; MIC [19]: 3.2 µg/mL; MIC [20]: > 25.6 µg/mL; MIC [21]: > 25.6 µg/mL; MIC [22]: 1.6 µg/mL
> 25.6,≦0.025,6.4,3.2,> 25.6,> 25.6,> 25.6,> 25.6,> 25.6,CO/N=C(\C(=O)N[C@@H]1C(=O)N2C(C(=O)O)=C(CSc3nc(=O)c(=O)[nH]n3C)CS[C@H]12)c1csc(N)n1 [ceftriaxone],MIC [23]: 25.6 µg/mL; MIC [24]: 2 to 8 µg/mL; susceptibility of the strain to the antibiotic [25]: susceptible
